Structures can show the parent of a compound that is named as a salt.
Target: T1, G9a (Homo sapiens, UniProt Q96KQ7)
T1 sequence (Q96KQ7 1-1210): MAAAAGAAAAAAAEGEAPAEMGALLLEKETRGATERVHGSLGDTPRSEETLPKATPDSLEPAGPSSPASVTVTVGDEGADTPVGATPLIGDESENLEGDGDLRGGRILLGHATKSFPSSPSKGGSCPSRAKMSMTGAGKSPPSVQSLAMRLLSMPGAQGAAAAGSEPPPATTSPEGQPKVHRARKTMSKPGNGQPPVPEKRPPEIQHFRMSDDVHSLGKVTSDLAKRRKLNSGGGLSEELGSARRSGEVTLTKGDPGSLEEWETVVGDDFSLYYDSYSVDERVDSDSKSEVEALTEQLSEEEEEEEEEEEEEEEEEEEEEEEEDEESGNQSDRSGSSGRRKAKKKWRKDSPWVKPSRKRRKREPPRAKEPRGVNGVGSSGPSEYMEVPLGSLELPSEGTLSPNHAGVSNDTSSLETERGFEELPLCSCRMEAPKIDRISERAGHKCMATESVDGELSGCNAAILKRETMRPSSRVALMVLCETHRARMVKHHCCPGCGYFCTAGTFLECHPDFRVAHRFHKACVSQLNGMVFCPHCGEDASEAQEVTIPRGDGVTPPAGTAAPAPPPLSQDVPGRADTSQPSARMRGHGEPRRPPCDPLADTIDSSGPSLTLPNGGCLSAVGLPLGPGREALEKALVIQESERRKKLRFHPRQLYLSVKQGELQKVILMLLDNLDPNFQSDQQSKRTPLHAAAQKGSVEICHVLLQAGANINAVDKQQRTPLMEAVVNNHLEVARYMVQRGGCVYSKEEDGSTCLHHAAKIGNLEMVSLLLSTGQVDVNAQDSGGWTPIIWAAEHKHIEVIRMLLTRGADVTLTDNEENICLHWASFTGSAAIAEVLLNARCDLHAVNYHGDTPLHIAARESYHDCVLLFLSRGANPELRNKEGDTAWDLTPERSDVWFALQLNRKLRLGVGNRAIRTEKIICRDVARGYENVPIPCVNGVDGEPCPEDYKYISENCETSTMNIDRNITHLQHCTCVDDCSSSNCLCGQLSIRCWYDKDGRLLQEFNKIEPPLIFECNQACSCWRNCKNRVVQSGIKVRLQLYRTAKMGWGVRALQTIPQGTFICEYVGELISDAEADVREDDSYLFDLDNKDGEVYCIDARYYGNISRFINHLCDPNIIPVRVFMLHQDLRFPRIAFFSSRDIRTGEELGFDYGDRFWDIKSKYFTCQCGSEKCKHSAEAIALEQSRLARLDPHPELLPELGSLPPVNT
Experiment: G9a AlphaLISA enzymatic activity assay
Assay type: biochemical
Details: 0.15 nM G9a, 10 uM S-adenosyl-methionine, 100 nM biotinylated histone 3 peptide (1-21), 1 h room temperature
Source text: The G9a AlphaLISA assay was used to detect the methyl modifications of a biotinylated histone H3 peptide by the compounds. These modifications are done by the histone methyl transferase activity of the G9a enzyme. The assay consists of reading a chemiluminescent signal at 615 nm; this signal is generated by a laser excitation at 680 nm that transfers a reactive singlet oxygen between the donor beads and acceptor beads. Donor beads are streptavidin conjugated and bind to the biotin on the peptide. Acceptor beads are conjugated with an antibody that recognizes the specific G9a methyl mark on the peptide. If there is a methyl mark on the peptide, the acceptor beads will bind to the peptide. Upon binding, the acceptor beads will be in close proximity (<200 nm) of the donor beads and when the donor beads are excited, the transfer of the oxygen can occur and a strong signal will be generated. If there is no methyl mark, the interaction between beads will not occur and signal will be at background levels.
For the assay, the following buffer was used to set up reactions: 50 mM Tris-HCl pH9, 50 mM NaCl, 0.01% Tween-20 and 1 mM DTT (added fresh prior to starting the reactions). The assay is set up by adding a final concentration of 0.15 nM G9a, 10 uM S-adenosyl-methionine and, 100 nM biotinylated histone 3 peptide (1-21). The reaction is incubated at room temperature for 1 h, and subsequently quenched by the addition of the acceptor beads (anti-H3k9me2 AlphaLISA acceptor beads, PerkinElmer #AL117) at a final concentration of 20 ug/mL. The acceptor beads are incubated for 1 h. After 1 h, the donor beads are added at a final concentration of 20 ug/mL (Alpha Streptavidin donor beads, PerkinElmer #6760002). Donor beads are incubated for 0.5 h. Both donor and acceptor beads are resuspended in AlphaLISA 5× Epigenetics Buffer 1 Kit (PerkinElmer #AL008) prior to addition to the reaction. All manipulations and incubations with the donor and acceptor beads are done in subdued light. Signal is detected in an EnVision plate reader in Alpha mode (See ACS Med Chem Lett. 2014 Jan. 2; 5(2):205-9)
Percent inhibition was calculated for each compound dilution and the concentration that produced 50% inhibition was calculated. This value is presented as the IC50.

SMILES | IC50 [nM]
CCN(C)CCCOc1cc2[nH]c3ccnc(C4CC4)c3c2cc1OC [Compound 46, [3-({1-cyclopropyl-8-methoxy-5H-pyrido[4,3-b]indol-7-yl}oxy)propyl](ethyl)methylamine hydrochloride] | 24
COc1cc2c(cc1OCCCN(C)C)[nH]c1ccnc(C3CC3)c12 [Compound 47, [3-({1-cyclopropyl-8-methoxy-5H-pyrido[4,3-b]indol-7-yl}oxy)propyl]dimethylamine hydrochloride] | 9.4
COc1cc2c(cc1OCCCN(C)C)[nH]c1ccnc(C#CC(C)(C)O)c12 [Compound 48, 4-{7-[3-(dimethylamino)propoxy]-8-methoxy-5H-pyrido[4,3-b]indol-1-yl}-2-methylbut-3-yn-2-ol hydrochloride] | 1300
COc1cc2c(cc1OCCCN(C)C)[nH]c1ccnc(CCC(C)(C)O)c12 [Compound 49, 4-{7-[3-(dimethylamino)propoxy]-8-methoxy-5H-pyrido[4,3-b]indol-1-yl}-2-methylbutan-2-ol hydrochloride] | 45
COc1cc2c(cc1OCCCN(C)C)[nH]c1ccnc(CCC3CC3)c12 [Compound 52, 3-((1-(2-cyclopropylethyl)-8-methoxy-5H-pyrido[4,3-b]indol-7-yl)oxy)-N,N-dimethylpropan-1-amine hydrochloride] | 100
COc1cc2c(cc1OCCOCCN(C)C)[nH]c1ccnc(C3CC3)c12 [Compound 53, {2-[2-({1-cyclopropyl-8-methoxy-5H-pyrido[4,3-b]indol-7-yl}oxy)ethoxy]ethyl}dimethylamine hydrochloride] | 62
COc1cc2c(cc1OCCCN(C)C)[nH]c1ccnc(C3CCCC3)c12 [Compound 56, [3-({1-cyclopentyl-8-methoxy-5H-pyrido[4,3-b]indol-7-yl}oxy)propyl]dimethylamine hydrochloride] | 15
C#Cc1nccc2[nH]c3cc(OCCCN(C)C)c(OC)cc3c12 [Compound 59, [3-({1-ethynyl-8-methoxy-5H-pyrido[4,3-b]indol-7-yl}oxy)propyl]dimethylamine hydrochloride] | 160
COc1cc2c(cc1OCCCN1CCCC1C)[nH]c1ccnc(C3CC3)c12 (stereo not drawn) [Compound 60, 1-[3-({1-cyclopropyl-8-methoxy-5H-pyrido[4,3-b]indol-7-yl}oxy)propyl]-2-methylpyrrolidine hydrochloride] | 51

Further lines, results first:

IC50 [nM] | SMILES
56 | CCN(C)CCCOc1cc2[nH]c3ccncc3c2cc1OC [Compound 45, ethyl[3-({8-methoxy-5H-pyrido[4,3-b]indol-7-yl}oxy)propyl]methylamine hydrochloride]
690 | COc1cc2c(cc1OCCCN(C)C)[nH]c1ccnc(C#CC(C)O)c12 (stereo not drawn) [Compound 50, 4-{7-[3-(dimethylamino)propoxy]-8-methoxy-5H-pyrido[4,3-b]indol-1-yl}but-3-yn-2-ol hydrochloride]
470 | COc1cc2c(cc1OCCCN(C)C)[nH]c1ccnc(C#CC3CC3)c12 [Compound 51, (3-{[1-(2-cyclopropylethynyl)-8-methoxy-5H-pyrido[4,3-b]indol-7-yl]oxy}propyl)dimethylamine hydrochloride]
18 | CCCc1nccc2[nH]c3cc(OCCCN(C)C)c(OC)cc3c12 [Compound 55, [3-({8-methoxy-1-propyl-5H-pyrido[4,3-b]indol-7-yl}oxy)propyl]dimethylamine hydrochloride]
61 | CCOCCc1nccc2[nH]c3cc(OCCCN(C)C)c(OC)cc3c12 [Compound 57, (3-{[1-(2-ethoxyethyl)-8-methoxy-5H-pyrido[4,3-b]indol-7-yl]oxy}propyl)dimethylamine hydrochloride]
86 | COCCCc1nccc2[nH]c3cc(OCCCN(C)C)c(OC)cc3c12 [Compound 58, (3-{[8-methoxy-1-(3-methoxypropyl)-5H-pyrido[4,3-b]indol-7-yl]oxy}propyl)dimethylamine hydrochloride]

Source: patent US11111243B2, “Azaindole compounds as histone methyltransferase inhibitors” (GLOBAL BLOOD THERAPEUTICS, INC., priority 2017, dated 2021)
